This data set concerns rodent lifetime carcinogenesis bioassay, tumor incidence TD50. Briefly: chronic cancer bioassays in animals – CPDB, compiled studies (AID 1745844).
[1] abbreviates: mouse, strain B6C3F1, females, in feed, site: liver, lesion: hepatocellular carcinoma, dosed 78 weeks, study length 104 weeks.
Where [2] appears, read: mouse, strain B6C3F1, males, in feed, site: liver, lesion: hepatocellular carcinoma, dosed 78 weeks, study length 104 weeks.

The text below walks through data of PubChem BioAssay AID1745844 (Carcinogenic Potency Database (CPDB), 2022).

“And” between values parts separate entries of the source, which are not always exact repeats. Equal values may be shown once.

In the case of `CC(C)CCCCCCOC(=O)c1ccccc1C(=O)OCCCCCCC(C)C`, the TD50 (in general, the dose at which the toxic effect under study appears in half of the subjects) by setting is: under setting [1], 3340 mg/kg/day; (mouse, strain B6C3F1, females, in feed, site: liver, lesion: hepatocellular carcinoma, dosed 79 weeks, study length 79 weeks) 5240 mg/kg/day; (mouse, strain B6C3F1, females, in feed, site: liver, lesion: hepatocellular carcinoma, dosed 104 weeks, study length 104 weeks) 2620 mg/kg/day; (mouse, strain B6C3F1, females, in feed, site: liver, lesion: several types, types named in the paper, dosed 79 weeks, study length 79 weeks) 2860 mg/kg/day; (mouse, strain B6C3F1, females, in feed, site: liver, lesion: several types, types named in the paper, dosed 104 weeks, study length 104 weeks) 1440 mg/kg/day; under setting [2], 4100 mg/kg/day. Besides, the TD50 (mouse, strain B6C3F1, males, in feed, site: liver, lesion: hepatocellular carcinoma, dosed 79 weeks, study length 79 weeks) is 1460 mg/kg/day; the TD50 (mouse, strain B6C3F1, males, in feed, site: liver, lesion: hepatocellular carcinoma, dosed 104 weeks, study length 104 weeks) was 2920 mg/kg/day; the TD50 (mouse, strain B6C3F1, males, in feed, site: liver, lesion: several types, types named in the paper, dosed 79 weeks, study length 79 weeks) was 1460 mg/kg/day; the TD50 (mouse, strain B6C3F1, males, in feed, site: liver, lesion: several types, types named in the paper, dosed 104 weeks, study length 104 weeks) is 1590 mg/kg/day; the TD50 (rat, strain Fischer 344, females, in feed, site: all sites, lesion: mononuclear-cell leukemia, dosed 78 weeks, study length 104 weeks) was 1140 mg/kg/day; the TD50 (rat, strain Fischer 344, females, in feed, site: all sites, lesion: mononuclear-cell leukemia, dosed 79 weeks, study length 79 weeks) came out at 1690 mg/kg/day. Also, the TD50 is, setting by setting: (rat, strain Fischer 344, females, in feed, site: all sites, lesion: mononuclear-cell leukemia, dosed 104 weeks, study length 104 weeks) 458 mg/kg/day and 1150 mg/kg/day; (rat, strain Fischer 344, females, in feed, site: liver, lesion: hepatocellular adenoma, dosed 79 weeks, study length 79 weeks) 3440 mg/kg/day; (rat, strain Fischer 344, females, in feed, site: liver, lesion: hepatocellular carcinoma, dosed 78 weeks, study length 104 weeks) 14300 mg/kg/day; (rat, strain Fischer 344, females, in feed, site: liver, lesion: hepatocellular carcinoma, dosed 104 weeks, study length 104 weeks) 7980 mg/kg/day; (rat, strain Fischer 344, males, in feed, site: all sites, lesion: mononuclear-cell leukemia, dosed 78 weeks, study length 104 weeks) 445 mg/kg/day; (rat, strain Fischer 344, males, in feed, site: kidney, lesion: tubular carcinoma, dosed 78 weeks, study length 104 weeks) 2960 mg/kg/day. The TD50 runs as follows: (rat, strain Fischer 344, males, in feed, site: kidney, lesion: tubular carcinoma, dosed 104 weeks, study length 104 weeks) 17200 mg/kg/day; (rat, strain Fischer 344, males, in feed, site: liver, lesion: hepatocellular carcinoma, dosed 78 weeks, study length 104 weeks) 9740 mg/kg/day; (rat, strain Fischer 344, males, in feed, site: liver, lesion: hepatocellular carcinoma, dosed 79 weeks, study length 79 weeks) 2750 mg/kg/day; (rat, strain Fischer 344, males, in feed, site: liver, lesion: hepatocellular carcinoma, dosed 104 weeks, study length 104 weeks) 2640 mg/kg/day.
As for `CC(C)=NNc1nc(-c2ccc([N+](=O)[O-])o2)cs1`, the TD50 reads like this: (rat, strain Holtzman albino (Sprague-Dawley derived), females, in feed, site: forestomach, lesion: squamous-cell papilloma, dosed 36 weeks, study length 54 weeks) 11 mg/kg/day; (rat, strain Holtzman albino (Sprague-Dawley derived), females, in feed, site: forestomach, lesion: squamous-cell papilloma, dosed 44 weeks, study length 60 weeks) 6.05 mg/kg/day.
For `C=C1C(CCl)(CCl)C2(Cl)C(Cl)C(Cl)C1(Cl)C2(Cl)Cl` (stereo not given), the TD50 by setting is: (mouse, strain B6C3F1, females, in feed, site: liver, lesion: hepatocellular adenoma, dosed 78 weeks, study length 104 weeks) 91.6 mg/kg/day; (mouse, strain B6C3F1, females, in feed, site: liver, lesion: hepatocellular adenoma, dosed 80 weeks, study length 90 weeks) 11.4 mg/kg/day and 11.6 mg/kg/day; under setting [1], 66.2 mg/kg/day; (mouse, strain B6C3F1, females, in feed, site: liver, lesion: hepatocellular carcinoma, dosed 80 weeks, study length 90 weeks) 273 mg/kg/day; (mouse, strain B6C3F1, females, in feed, site: liver, lesion: several types, pooled by NCI/NTP, dosed 80 weeks, study length 90 weeks) 10.6 mg/kg/day and 10.8 mg/kg/day; (mouse, strain B6C3F1, females, in feed, site: liver, lesion: several types, types named in the paper, dosed 78 weeks, study length 104 weeks) 37 mg/kg/day. In addition, the TD50 is, setting by setting: (mouse, strain B6C3F1, males, in feed, site: liver, lesion: hepatocellular adenoma, dosed 78 weeks, study length 104 weeks) 21.2 mg/kg/day; (mouse, strain B6C3F1, males, in feed, site: liver, lesion: hepatocellular adenoma, dosed 80 weeks, study length 90 weeks) 6.12 mg/kg/day and 5.76 mg/kg/day; under setting [2], 27.5 mg/kg/day; (mouse, strain B6C3F1, males, in feed, site: liver, lesion: hepatocellular carcinoma, dosed 80 weeks, study length 90 weeks) 248 mg/kg/day and 168 mg/kg/day; (mouse, strain B6C3F1, males, in feed, site: liver, lesion: several types, pooled by NCI/NTP, dosed 80 weeks, study length 90 weeks) 4.2 mg/kg/day and 4.08 mg/kg/day; (mouse, strain B6C3F1, males, in feed, site: liver, lesion: several types, types named in the paper, dosed 78 weeks, study length 104 weeks) 13.6 mg/kg/day. The TD50 (rat, strain Osborne-Mendel, females, in feed, site: any site (literature study), lesion: several types, types named in the paper, dosed 80 weeks, study length 108 weeks) stood at 596 mg/kg/day; the TD50 (rat, strain Osborne-Mendel, females, in feed, site: thyroid gland, lesion: follicular-cell adenoma, dosed 80 weeks, study length 108 weeks) is 209 mg/kg/day; the TD50 (rat, strain Osborne-Mendel, males, in feed, site: any site (literature study), lesion: several types, types named in the paper, dosed 80 weeks, study length 108 weeks) came out at 1020 mg/kg/day; the TD50 (rat, strain Osborne-Mendel, males, in feed, site: liver, lesion: hepatocellular adenoma + hepatocellular carcinoma + neoplastic nodule, dosed 80 weeks, study length 108 weeks) is 949 mg/kg/day; the TD50 (rat, strain Osborne-Mendel, males, in feed, site: liver, lesion: neoplastic nodule, dosed 80 weeks, study length 108 weeks) came out at 92.1 mg/kg/day; the TD50 (rat, strain Osborne-Mendel, males, in feed, site: thyroid gland, lesion: follicular-cell adenoma + follicular-cell carcinoma, dosed 80 weeks, study length 108 weeks) was 58.9 mg/kg/day.
With `CCN(N=O)C(=O)NCC(C)=O`, the TD50 reads like this: (hamster, strain Syrian Golden, females, by gavage, site: forestomach, lesion: carcinoma, dosed 30 weeks, study length 85 weeks) 2.19 mg/kg/day; (hamster, strain Syrian Golden, females, by gavage, site: forestomach, lesion: several types, types named in the paper, dosed 30 weeks, study length 85 weeks) 0.983 mg/kg/day; (hamster, strain Syrian Golden, females, by gavage, site: spleen, lesion: all vascular tumors, dosed 30 weeks, study length 85 weeks) 0.394 mg/kg/day; (hamster, strain Syrian Golden, males, by gavage, site: forestomach, lesion: carcinoma, dosed 30 weeks, study length 85 weeks) 1.92 mg/kg/day; (hamster, strain Syrian Golden, males, by gavage, site: forestomach, lesion: several types, types named in the paper, dosed 30 weeks, study length 85 weeks) 0.506 mg/kg/day; (hamster, strain Syrian Golden, males, by gavage, site: liver, lesion: cholangioma, dosed 30 weeks, study length 85 weeks) 1.1 mg/kg/day. Moreover, the TD50 is, setting by setting: (hamster, strain Syrian Golden, males, by gavage, site: spleen, lesion: hemangiosarcoma, dosed 30 weeks, study length 85 weeks) 0.865 mg/kg/day; (rat, strain Fischer 344, females, by gavage, site: lung, lesion: one or several types, types not named, dosed 30 weeks, study length 104 weeks) 0.873 mg/kg/day; (rat, strain Fischer 344, females, by gavage, site: mammary tissue, wider than the gland, lesion: carcinoma, dosed 30 weeks, study length 104 weeks) 0.192 mg/kg/day; (rat, strain Fischer 344, females, by gavage, site: nervous system, lesion: one or several types, types not named, dosed 30 weeks, study length 104 weeks) 1.66 mg/kg/day; (rat, strain Fischer 344, females, by gavage, site: uterus, lesion: one or several types, types not named, dosed 30 weeks, study length 104 weeks) 1.84 mg/kg/day; (rat, strain Fischer 344, females, in drinking water, site: colon, lesion: one or several types, types not named, dosed 30 weeks, study length 104 weeks) 1.13 mg/kg/day. Also, the TD50 by setting is: (rat, strain Fischer 344, females, in drinking water, site: liver, lesion: one or several types, types not named, dosed 30 weeks, study length 104 weeks) 5.53 mg/kg/day; (rat, strain Fischer 344, females, in drinking water, site: lung, lesion: one or several types, types not named, dosed 30 weeks, study length 104 weeks) 0.885 mg/kg/day; (rat, strain Fischer 344, females, in drinking water, site: mammary tissue, wider than the gland, lesion: carcinoma, dosed 30 weeks, study length 104 weeks) 0.748 mg/kg/day; (rat, strain Fischer 344, females, in drinking water, site: nervous system, lesion: one or several types, types not named, dosed 30 weeks, study length 104 weeks) 0.605 mg/kg/day; (rat, strain Fischer 344, females, in drinking water, site: skin, lesion: one or several types, types not named, dosed 30 weeks, study length 104 weeks) 1.79 mg/kg/day; (rat, strain Fischer 344, females, in drinking water, site: thyroid gland, lesion: follicular-cell tumor, dosed 30 weeks, study length 104 weeks) 0.804 mg/kg/day. In addition, the TD50 is 1.49 mg/kg/day (rat, strain Fischer 344, females, in drinking water, site: uterus, lesion: one or several types, types not named, dosed 30 weeks, study length 104 weeks); 0.499 mg/kg/day (rat, strain Fischer 344, males, by gavage, site: Zymbal's gland, lesion: one or several types, types not named, dosed 30 weeks, study length 104 weeks); 0.562 mg/kg/day (rat, strain Fischer 344, males, by gavage, site: colon, lesion: one or several types, types not named, dosed 30 weeks, study length 104 weeks); 0.861 mg/kg/day (rat, strain Fischer 344, males, by gavage, site: forestomach, lesion: one or several types, types not named, dosed 30 weeks, study length 104 weeks); 3.39 mg/kg/day (rat, strain Fischer 344, males, by gavage, site: liver, lesion: one or several types, types not named, dosed 30 weeks, study length 104 weeks); 1.37 mg/kg/day (rat, strain Fischer 344, males, by gavage, site: nervous system, lesion: one or several types, types not named, dosed 30 weeks, study length 104 weeks). Besides, the TD50 was 0.767 mg/kg/day (rat, strain Fischer 344, males, by gavage, site: thyroid gland, lesion: follicular-cell tumor, dosed 30 weeks, study length 104 weeks); 0.225 mg/kg/day (rat, strain Fischer 344, males, by gavage, site: tunica vaginalis, lesion: mesothelioma, dosed 30 weeks, study length 104 weeks); 1.13 mg/kg/day (rat, strain Fischer 344, males, in drinking water, site: Zymbal's gland, lesion: one or several types, types not named, dosed 30 weeks, study length 104 weeks); 0.524 mg/kg/day (rat, strain Fischer 344, males, in drinking water, site: colon, lesion: one or several types, types not named, dosed 30 weeks, study length 104 weeks); 0.231 mg/kg/day (rat, strain Fischer 344, males, in drinking water, site: lung, lesion: one or several types, types not named, dosed 30 weeks, study length 104 weeks); 0.127 mg/kg/day (rat, strain Fischer 344, males, in drinking water, site: nervous system, lesion: one or several types, types not named, dosed 30 weeks, study length 104 weeks). In addition, the TD50 (rat, strain Fischer 344, males, in drinking water, site: skin, lesion: one or several types, types not named, dosed 30 weeks, study length 104 weeks) is 0.982 mg/kg/day and the TD50 (rat, strain Fischer 344, males, in drinking water, site: tunica vaginalis, lesion: mesothelioma, dosed 30 weeks, study length 104 weeks) was 0.264 mg/kg/day. Also, where the note is “rat, strain Fischer 344, males, by gavage, site: lung, lesion: one or several types, types not named, dosed 30 weeks, study length 104 weeks”, the carcinogen call is “positive”.
